Experimental data: PubChem BioAssay AID1549 (Sanford-Burnham Center for Chemical Genomics, 2009)
The source made the active and inactive calls. The rule behind the calls is not given here.

molecular target: Influenza A virus M2 proton channel (A/TW/4845/1999 H1N1); assay: M2 proton channel binding, NMR based, influenza A virus H1N1 strain (AID 1549); settings: NMR binding screen, M2 protein

Compound | Kd
CSc1ccc(C2NC(=O)CCC2[N+](=O)[O-])cc1 (stereo not drawn) | > 4 mM (inactive)
NC(c1ccccc1)c1ccccn1 (stereo not drawn) | > 4 mM (inactive)
NC(=O)CSc1nc2ccccc2[nH]1 | > 4 mM (inactive)
Cc1cc(C)n2nc(C(=O)Nc3cccnc3)nc2n1 | > 4 mM (inactive)
CCOC(=O)c1ccc(Oc2ccc(C)nn2)cc1 | > 4 mM (inactive)
COC1=CC(=O)C(O)=C/C1=C\C=C\c1ccccc1 | > 4 mM (inactive)
Nc1nc2[nH]c(=O)c(=O)[nH]c2c(=O)[nH]1 | > 4 mM (inactive)
CSc1nsc(SCc2cnc(C)nc2N)n1 | > 4 mM (inactive)
O=S(=O)(O)c1cc[n+]([O-])cc1 | > 4 mM (inactive)
COC(=O)[C@]1(C)CC[C@]2(C)CC[C@]3(C)C4=CC=C5C(=CC(=O)C(O)=C5C)[C@]4(C)CC[C@@]3(C)[C@@H]2C1 | > 4 mM (inactive)
c1ccc2nc3c(nc2c1)CCc1nonc1-3 | > 4 mM (inactive)
CC(=O)Nc1cccc(N(C)S(C)(=O)=O)c1 | > 4 mM (inactive)
CC(CC(O)C1OC1(C)C)[C@@H]1CCC2(C)C3=CCC4C(C)(C)C(=O)CCC4(C)C3CC[C@@]12C (stereo partly drawn) | > 4 mM (inactive)
O=C1N=c2ccccc2=C1c1[nH]c(=S)[nH]c1O | > 4 mM (inactive)
O=c1ccc2c([nH]1)CCCC2 | > 4 mM (inactive)
NC(N)=Nc1nc2ccccc2o1 | > 4 mM (inactive)
O=C1NC(=O)/C(=C/c2ccc(O)cc2)N1 | > 4 mM (inactive)
Cc1cc(C)n(CC(=O)NC2CCCCC2)n1 | > 4 mM (inactive)
O=S1(=O)CCC(NCCO)C1 (stereo not drawn) | > 4 mM (inactive)
NC(=O)C1CCN(C(=O)c2ccccc2F)CC1 | > 4 mM (inactive)

Compound | Kd
COc1cc2nc(-c3cccs3)oc(=O)c2cc1OC | > 4 mM (inactive)
CCOC(=O)C1CCN(c2ncnc3nc[nH]c23)CC1 | > 4 mM (inactive)
O=C1CSC2=NCCCN12 | > 4 mM (inactive)
COC1=CC(=O)C[C@@H](C)[C@]12Oc1c(Cl)c(OC)cc(OC)c1C2=O | > 4 mM (inactive)
COc1ccc2cnn(-c3ccccc3)c(=O)c2c1OC | > 4 mM (inactive)
O=C(Nc1ccon1)c1cc2c(s1)CCCC2 | > 4 mM (inactive)
C/C=C(/C)C(=O)O[C@@H]1[C@H](OC(C)=O)[C@@]2(CO)C(CC1(C)C)C1=CCC3[C@@]4(C)CC[C@H](O[C@@H]5O[C@H](C(=O)O)[C@@H](O[C@@H]6O[C@H](CO)[C@@H](O)[C@H](O)[C@H]6O)[C@H](O)[C@H]5O[C@@H]5O[C@H](CO)[C@@H](O)[C@H](O)[C@H]5O)[C@](C)(CO)C4CC[C@@]3(C)[C@]1(C)C[C@H]2O (stereo partly drawn) | > 4 mM (inactive)
Cn1cnnc1Sc1ncnc(N)c1[N+](=O)[O-] | > 4 mM (inactive)
CC1(C)Cc2cccc(C(=O)O)c2O1 | > 4 mM (inactive)
Cn1c(SCC(N)=O)nnc1-c1c[nH]c2ccccc12 | > 4 mM (inactive)
CC(=O)Nc1ccc(N2CCOCC2)cc1 | > 4 mM (inactive)
O=C(Nc1cccc(C(F)(F)F)c1)c1cccnc1 | > 4 mM (inactive)
COC(=O)c1nc(-c2ccccc2)oc1N(C)C | > 4 mM (inactive)
Fc1cccc(Cl)c1CN1CCNCC1 | > 4 mM (inactive)
CC(=O)Oc1cccc2ccc(=O)[nH]c12 | > 4 mM (inactive)
CC(C)c1c(O)c(-c2cc3c(c(C(C)C)c2O)CCC2C(C)(C)CCC[C@]32C)cc2c1CCC1C(C)(C)CCC[C@]21C (stereo partly drawn) | > 4 mM (inactive)
Cn1cc(Cl)c(C(=O)Nc2ccncc2)n1 | > 4 mM (inactive)
O=C1C2CC=CCC2C(=O)N1c1cccc(O)c1 (stereo not drawn) | > 4 mM (inactive)
CS(=O)(=O)CCCCN=C=S | > 4 mM (inactive)
COC(=O)c1cc(-c2c(C)nn(-c3ccccc3)c2C)n[nH]1 | > 4 mM (inactive)

Compound | Kd
CCP(=O)(CC)c1cccc(C)c1 | > 4 mM (inactive)
CC(C)=CCc1c(O)cc(C)oc1=O | > 4 mM (inactive)
COc1ccc(C2(CN)CCOCC2)cc1OC | > 4 mM (inactive)
Cc1ccc(-n2ncc(C#N)c2/N=C/N(C)C)cc1 | > 4 mM (inactive)
c1ccc(Cc2nnc3sc(-c4ccccn4)nn23)cc1 | > 4 mM (inactive)
COc1ccc2c(c1OC)C(=O)O[C@@H]2[C@@H]1c2cc3c(cc2CCN1C)OCO3 | > 4 mM (inactive)
O=C(Nc1ccccc1F)c1ccncc1 | > 4 mM (inactive)
NC(=O)c1ccc2c(c1)OCO2 | > 4 mM (inactive)
c1ccc(-c2csc3ncn4nnnc4c23)cc1 | > 4 mM (inactive)
Cc1nnc(SCC(=O)NC2CCCC2)[nH]c1=O | > 4 mM (inactive)
CCOC(=O)c1[nH]cnc1C(=O)OC(C)C | > 4 mM (inactive)
O=C(O)C1CCCN1Cc1c[nH]c2ccccc12 (stereo not drawn) | > 4 mM (inactive)
OC(CCl)c1ccc(-n2cncn2)cc1 (stereo not drawn) | > 4 mM (inactive)
CC1=NN(C(N)=S)C(C)(C)C1 | > 4 mM (inactive)
NC(=O)c1ccc(Cl)c(N2C(=O)CCC2=O)c1 | > 4 mM (inactive)
CC(=O)Nn1c(=O)[nH]c2ccccc2c1=O | > 4 mM (inactive)
c1ccc2c(c1)ncn2CCn1cnc2ccccc21 | > 4 mM (inactive)
COc1ccc(-c2cc(=O)c3c(OC)c(OC)c(OC)c(OC)c3o2)cc1OC | > 4 mM (inactive)
